According to patent US20190308963A1, “HETEROCYCLIC COMPOUNDS AND USES THEREOF” (priority 2018, published 2019):
pIC50: −log10 of the molar value.

Assays:
PI3Kδ (p110δ/p85α) = PI3Kδ (p110δ/p85α) (Homo sapiens, UniProt O00329); assay: cell-free PI3K HTRF assay, PI3Kδ
Method: (§4) Exemplary compounds of the invention were tested for inhibitory activity or potency against class I PI3Ks (p110α/p85α, p110β/p85α, p110δ/p85α and p110γ) using a cell-free based PI3K HTRF assay. This assay was used to detect the formation of the product 3,4,5-inositol triphosphate molecule (PIP3) by displacement of biotin-PIP3 from an energy transfer complex consisting of Europium labeled anti-GST monoclonal antibody, a GST-tagged pleckstrin homology (PH) domain, biotinylated PIP3 and Streptavidin-Allophycocyanin (APC). […] The PIP3 product formed by human PI3-Kinase activity displaces biotin-PIP3 from the complex resulting in a loss of energy transfer and thus a decrease in signal.
(§5) Human class I PI3K isoforms were co-expressed in a Baculovirus infected cell expression system. The PI3K isoforms were assayed in the presence of HEPES (50 mM, pH 7.0), NaN3 (0.02%), BSA (0.01%), orthovanadate (0.1 mM), and DMSO (1%). The exemplary compounds dissolved in DMSO were delivered into the kinase reaction mixture by Acoustic technology (Echo550; nanolitter range), and were pre-incubated for 10 min at room temperature before adding ATP (10 μM) to initiate the reaction. […] The emission ratio is converted into μM PIP3 production based on PIP3 standard curves, and the nonlinear regression to obtain the standard curve and IC50 values are performed using Graphpad Prism software.

BRD4 (BD1) = target: T1, BRD4 (BD1) (Homo sapiens, UniProt O60885); assay: AlphaScreen FRET binding assay, BRD4 (BD1); settings: read-out: IC50 value for the inhibition of BRD4 (BD1)
T1 construct: recombinant human BRD4 (BD1; aa 44-170); purchased Reaction Biology Corporation (contract assay service); host or cells: E. coli
Method: (§1) Exemplary compounds of the invention were tested for inhibitory activity or potency against BRD4 (BD1) and BRD4 (BD2) using AlphaScreen FRET binding assay, and exemplary compounds of the invention were further tested for inhibitory activity or potency against class I PI3Ks (p110α/p85α, p110β/p85α, p110δ/p85α and p110γ) using a cell-free based .P13K HTRF assay. All assays were performed at Reaction Biology Corporation, One Great Valley Parkway, Suite 2, Malvem, Pa.
(§2) Exemplary compounds of the invention were tested for inhibitory activity or potency against BRD4 (BD1) and BRD4 (BD2) using AlphaScreen FRET binding assay. […] Briefly, donor beads coated with streptavidin were incubated with biotinylated histone H4 peptide (residues 1-21) containing KAc (K5/^8/12/16Ac). In the absence of inhibitor, the. His-tagged reader domain of BRD4 binds to KAc-histone H4 peptide, thereby recruiting acceptor beads coated with a nickel chelator. Binding potential is assessed by detecting light emission (520-620 nm) from acceptor beads following laser excitation (680 nm) of a photosensitizer within the donor beads that converts ambient oxygen to singlet oxygen.
(§3) All IC50 values were reported in unites of nM.

class I PI3Ks = assay: summary in words of the class I PI3K (and BRD4) results; format: biochemical, human; settings: for activity against PI3K in words: novel BRD inhibitors without PI3K activity; for overall activity in words (class I PI3Ks and BRD4): against both divergent targets
Method: Exemplary compounds of the invention were tested for inhibitory activity or potency against class I PI3Ks (p110α/p85α, p110β/p85α, p110δ/p85α and p110γ) using a cell-free based PI3K HTRF assay. This assay was used to detect the formation of the product 3,4,5-inositol triphosphate molecule (PIP3) by displacement of biotin-PIP3 from an energy transfer complex consisting of Europium labeled anti-GST monoclonal antibody, a GST-tagged pleckstrin homology (PH) domain, biotinylated PIP3 and Streptavidin-Allophycocyanin (APC). Excitation of Europium in the complex results in an energy transfer to the APC and a fluorescent emission at 665 nm. The PIP3 product formed by human PI3-Kinase activity displaces biotin-PIP3 from the complex resulting in a loss of energy transfer and thus a decrease in signal.
Human class I PI3K isoforms were co-expressed in a Baculovirus infected cell expression system. The PI3K isoforms were assayed in the presence of HEPES (50 mM, pH 7.0), NaN3 (0.02%), BSA (0.01%), orthovanadate (0.1 mM), and DMSO (1%). The exemplary compounds dissolved in DMSO were delivered into the kinase reaction mixture by Acoustic technology (Echo550; nanolitter range), and were pre-incubated for 10 min at room temperature before adding ATP (10 μM) to initiate the reaction. After 30 min at 30° C., the reactions were quenched with a stop solution, incubated overnight with a detection mixture before measuring HTRF (Ex: 320 nm; Em: 615/665 nm). The emission ratio is converted into μM PIP3 production based on PIP3 standard curves, and the nonlinear regression to obtain the standard curve and IC50 values are performed using Graphpad Prism software.
All IC50 values were reported in unites of nM. Empty cells indicate no inhibition or compound activity that could not be fit to an IC50 curve.
Dual inhibitors of class I PI3Ks and BRD4 are rare because class I PI3Ks and BRD4 are two structurally and functionally unrelated targets. […] The unexpected dual inhibitory activity or potency against both divergent targets is attributed to not only the unusual overall shape of the molecules of the present invention (as described in U.S. Pat. No. 9,637,488), but also the specific KAc-mimicking groups selected and their position incorporated into the quinoline ring.

BRD4 (BD2) = target: T2, BRD4 (BD2) (Homo sapiens, UniProt O60885); assay: AlphaScreen FRET binding assay, BRD4 (BD2); settings: read-out: IC50 value for the inhibition of BRD4 (BD2)
T2 construct: recombinant human BRD4 (BD2; aa 349-460); purchased Reaction Biology Corporation (contract assay service); host or cells: E. coli
Method: as §1, §2, §3

PI3Kα (p110α/p85α) = PI3Kα (p110α/p85α) (Homo sapiens, UniProt P42336); assay: cell-free PI3K HTRF assay, PI3Kα
Chain of PI3Kα (p110α/p85α) (P42336 whole entry): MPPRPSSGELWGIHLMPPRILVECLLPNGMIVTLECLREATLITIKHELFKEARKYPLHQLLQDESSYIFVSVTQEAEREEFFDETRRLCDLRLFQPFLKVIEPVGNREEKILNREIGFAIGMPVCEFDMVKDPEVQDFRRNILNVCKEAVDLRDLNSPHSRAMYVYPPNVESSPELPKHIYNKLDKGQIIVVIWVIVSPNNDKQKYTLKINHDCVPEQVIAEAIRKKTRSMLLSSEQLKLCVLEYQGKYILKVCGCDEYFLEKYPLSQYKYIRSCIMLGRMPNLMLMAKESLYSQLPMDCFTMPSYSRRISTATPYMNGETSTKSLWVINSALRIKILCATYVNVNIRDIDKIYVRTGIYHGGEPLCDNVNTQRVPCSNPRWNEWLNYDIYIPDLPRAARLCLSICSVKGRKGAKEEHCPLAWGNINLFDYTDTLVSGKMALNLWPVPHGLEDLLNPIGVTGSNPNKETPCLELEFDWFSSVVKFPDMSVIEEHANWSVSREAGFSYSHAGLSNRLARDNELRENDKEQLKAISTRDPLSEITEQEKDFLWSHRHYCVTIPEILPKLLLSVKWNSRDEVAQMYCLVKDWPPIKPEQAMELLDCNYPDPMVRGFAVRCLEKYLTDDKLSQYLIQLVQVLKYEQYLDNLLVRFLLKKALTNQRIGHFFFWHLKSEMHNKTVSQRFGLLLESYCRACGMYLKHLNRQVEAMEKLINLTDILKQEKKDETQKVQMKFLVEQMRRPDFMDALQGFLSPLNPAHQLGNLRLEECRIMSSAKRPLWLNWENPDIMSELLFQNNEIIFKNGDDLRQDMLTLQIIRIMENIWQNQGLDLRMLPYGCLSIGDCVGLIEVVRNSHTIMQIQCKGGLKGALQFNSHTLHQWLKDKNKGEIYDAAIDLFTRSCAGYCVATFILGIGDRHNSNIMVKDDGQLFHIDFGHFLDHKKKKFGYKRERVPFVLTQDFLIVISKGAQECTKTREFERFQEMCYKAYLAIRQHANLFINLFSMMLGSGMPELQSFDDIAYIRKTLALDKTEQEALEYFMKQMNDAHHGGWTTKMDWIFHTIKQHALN
Chain of PI3Kα (p110α/p85α) (P27986 whole entry partner): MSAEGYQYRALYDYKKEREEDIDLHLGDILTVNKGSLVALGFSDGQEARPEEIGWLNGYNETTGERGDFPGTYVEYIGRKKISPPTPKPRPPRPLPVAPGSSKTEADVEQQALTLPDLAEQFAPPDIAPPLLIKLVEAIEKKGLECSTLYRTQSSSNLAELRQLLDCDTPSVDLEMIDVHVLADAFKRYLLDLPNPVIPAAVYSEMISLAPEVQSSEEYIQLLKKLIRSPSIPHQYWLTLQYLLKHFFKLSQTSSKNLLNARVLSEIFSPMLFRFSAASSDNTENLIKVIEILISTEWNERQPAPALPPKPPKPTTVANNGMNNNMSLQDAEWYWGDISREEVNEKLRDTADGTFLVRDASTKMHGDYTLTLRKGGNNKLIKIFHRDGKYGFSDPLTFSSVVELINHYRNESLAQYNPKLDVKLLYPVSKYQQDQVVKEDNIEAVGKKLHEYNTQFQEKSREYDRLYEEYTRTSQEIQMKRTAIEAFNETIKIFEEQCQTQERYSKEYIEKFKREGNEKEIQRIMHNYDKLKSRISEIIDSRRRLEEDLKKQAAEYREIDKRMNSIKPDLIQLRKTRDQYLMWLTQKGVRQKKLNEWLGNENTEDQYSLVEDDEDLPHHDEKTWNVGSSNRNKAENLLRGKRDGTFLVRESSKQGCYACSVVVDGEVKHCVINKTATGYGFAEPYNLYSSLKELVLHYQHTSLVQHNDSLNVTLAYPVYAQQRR
Method: as §4, §5

PI3Kβ (p110β/p85α) = PI3Kβ (p110β/p85α) (Homo sapiens, UniProt P42338); assay: cell-free PI3K HTRF assay, PI3Kβ
Chain of PI3Kβ (p110β/p85α) (P42338 whole entry): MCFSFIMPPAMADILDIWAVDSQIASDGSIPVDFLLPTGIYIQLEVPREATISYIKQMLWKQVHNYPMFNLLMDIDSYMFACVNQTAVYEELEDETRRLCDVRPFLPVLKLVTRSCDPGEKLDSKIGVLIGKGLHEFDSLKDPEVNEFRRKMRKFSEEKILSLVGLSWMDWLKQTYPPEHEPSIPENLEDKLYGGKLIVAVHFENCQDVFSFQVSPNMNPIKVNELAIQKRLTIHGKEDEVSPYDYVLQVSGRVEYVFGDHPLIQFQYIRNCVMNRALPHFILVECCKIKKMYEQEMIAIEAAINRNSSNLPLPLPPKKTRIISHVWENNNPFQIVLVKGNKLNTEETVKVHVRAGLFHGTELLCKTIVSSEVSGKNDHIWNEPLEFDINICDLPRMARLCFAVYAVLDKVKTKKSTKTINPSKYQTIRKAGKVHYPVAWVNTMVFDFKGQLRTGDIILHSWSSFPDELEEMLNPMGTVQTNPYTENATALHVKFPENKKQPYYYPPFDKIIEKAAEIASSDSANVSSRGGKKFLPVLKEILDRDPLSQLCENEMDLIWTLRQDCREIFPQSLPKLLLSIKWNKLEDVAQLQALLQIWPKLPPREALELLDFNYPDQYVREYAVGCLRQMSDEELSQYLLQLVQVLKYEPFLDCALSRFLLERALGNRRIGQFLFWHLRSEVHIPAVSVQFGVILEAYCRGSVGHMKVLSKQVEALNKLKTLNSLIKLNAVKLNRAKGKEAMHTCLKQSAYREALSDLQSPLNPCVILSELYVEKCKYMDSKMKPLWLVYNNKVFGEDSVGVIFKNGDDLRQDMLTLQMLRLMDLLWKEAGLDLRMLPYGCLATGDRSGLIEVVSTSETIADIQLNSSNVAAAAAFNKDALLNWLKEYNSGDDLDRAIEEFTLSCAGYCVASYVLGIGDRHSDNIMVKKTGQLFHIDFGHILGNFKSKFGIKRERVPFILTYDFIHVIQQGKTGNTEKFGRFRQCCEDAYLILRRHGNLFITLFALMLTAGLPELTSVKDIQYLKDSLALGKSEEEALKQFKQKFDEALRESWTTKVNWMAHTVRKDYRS
Chain of PI3Kβ (p110β/p85α) (P27986 whole entry partner): as the sequence (P27986 whole entry partner) above
Method: as §4, §5

PI3Kγ (p110γ) = PI3Kγ (p110γ) (Homo sapiens, UniProt P48736); assay: cell-free PI3K HTRF assay, PI3Kγ
Chain of PI3Kγ (p110γ) (P48736 whole entry): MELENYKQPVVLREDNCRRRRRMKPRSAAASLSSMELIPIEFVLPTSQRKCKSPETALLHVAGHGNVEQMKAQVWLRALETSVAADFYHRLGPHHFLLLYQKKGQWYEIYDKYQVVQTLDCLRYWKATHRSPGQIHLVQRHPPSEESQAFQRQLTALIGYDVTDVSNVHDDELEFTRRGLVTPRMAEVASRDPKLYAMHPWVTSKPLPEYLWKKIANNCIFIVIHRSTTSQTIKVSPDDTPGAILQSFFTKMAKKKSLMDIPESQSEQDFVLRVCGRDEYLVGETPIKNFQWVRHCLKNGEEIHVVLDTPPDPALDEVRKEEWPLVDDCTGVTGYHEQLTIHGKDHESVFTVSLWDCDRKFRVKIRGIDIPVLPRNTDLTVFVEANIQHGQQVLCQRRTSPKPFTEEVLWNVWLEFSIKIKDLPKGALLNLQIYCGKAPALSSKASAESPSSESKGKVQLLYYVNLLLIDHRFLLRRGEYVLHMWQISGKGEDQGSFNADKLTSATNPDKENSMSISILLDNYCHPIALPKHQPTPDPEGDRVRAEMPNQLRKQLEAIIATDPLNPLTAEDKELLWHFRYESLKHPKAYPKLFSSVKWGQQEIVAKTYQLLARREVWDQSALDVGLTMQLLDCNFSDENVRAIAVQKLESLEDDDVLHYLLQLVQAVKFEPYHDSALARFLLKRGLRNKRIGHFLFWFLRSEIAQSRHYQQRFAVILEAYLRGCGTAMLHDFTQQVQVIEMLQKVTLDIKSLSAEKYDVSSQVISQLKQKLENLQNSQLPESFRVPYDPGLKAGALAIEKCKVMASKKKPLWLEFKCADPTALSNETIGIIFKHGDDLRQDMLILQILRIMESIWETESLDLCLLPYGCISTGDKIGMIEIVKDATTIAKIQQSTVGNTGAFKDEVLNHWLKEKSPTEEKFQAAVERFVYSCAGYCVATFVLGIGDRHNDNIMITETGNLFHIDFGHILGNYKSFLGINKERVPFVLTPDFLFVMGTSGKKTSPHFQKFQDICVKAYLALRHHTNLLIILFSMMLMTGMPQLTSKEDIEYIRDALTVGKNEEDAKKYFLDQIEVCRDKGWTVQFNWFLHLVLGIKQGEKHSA
Method: as §4, §5

Chain of PI3Kδ (p110δ/p85α) (O00329 whole entry): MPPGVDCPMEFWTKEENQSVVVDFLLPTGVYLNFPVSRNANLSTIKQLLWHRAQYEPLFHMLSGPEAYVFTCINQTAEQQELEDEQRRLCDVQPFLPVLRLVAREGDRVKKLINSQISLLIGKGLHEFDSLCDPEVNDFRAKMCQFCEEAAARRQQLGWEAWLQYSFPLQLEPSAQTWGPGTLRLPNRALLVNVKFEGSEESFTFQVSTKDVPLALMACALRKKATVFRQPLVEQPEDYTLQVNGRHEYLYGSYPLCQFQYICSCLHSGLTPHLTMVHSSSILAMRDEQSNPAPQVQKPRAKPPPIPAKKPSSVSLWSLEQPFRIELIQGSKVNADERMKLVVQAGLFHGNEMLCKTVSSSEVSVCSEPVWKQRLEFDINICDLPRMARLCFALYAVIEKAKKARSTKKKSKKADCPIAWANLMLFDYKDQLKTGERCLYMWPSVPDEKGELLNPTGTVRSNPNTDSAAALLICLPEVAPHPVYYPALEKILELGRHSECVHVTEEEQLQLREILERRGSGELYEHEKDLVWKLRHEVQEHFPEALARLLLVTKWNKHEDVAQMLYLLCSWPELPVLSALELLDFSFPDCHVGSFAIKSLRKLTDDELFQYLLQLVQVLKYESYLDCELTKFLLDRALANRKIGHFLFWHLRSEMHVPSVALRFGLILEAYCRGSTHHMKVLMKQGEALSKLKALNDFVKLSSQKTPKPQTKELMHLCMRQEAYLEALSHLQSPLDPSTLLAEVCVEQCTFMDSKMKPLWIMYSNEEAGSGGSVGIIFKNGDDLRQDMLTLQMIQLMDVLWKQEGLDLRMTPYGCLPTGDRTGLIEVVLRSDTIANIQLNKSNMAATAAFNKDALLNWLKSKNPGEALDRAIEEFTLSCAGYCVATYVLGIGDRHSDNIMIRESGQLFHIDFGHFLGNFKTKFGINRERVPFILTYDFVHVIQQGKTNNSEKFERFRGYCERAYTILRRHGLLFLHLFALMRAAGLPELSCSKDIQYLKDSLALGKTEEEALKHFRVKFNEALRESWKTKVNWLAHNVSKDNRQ
Chain of PI3Kδ (p110δ/p85α) (P27986 whole entry partner): as the sequence (P27986 whole entry partner) above

Structure (SMILES)	pIC50 (PI3Kδ (p110δ/p85α))	pIC50 (BRD4 (BD1))	activity against PI3K in words (class I PI3Ks)	pIC50 (BRD4 (BD2))	pIC50 (PI3Kα (p110α/p85α))	pIC50 (PI3Kβ (p110β/p85α))	pIC50 (PI3Kγ (p110γ))	overall activity in words (class I PI3Ks and BRD4) (class I PI3Ks)
Cc1noc(C)c1-c1nc2c(C)cccc2cc1C1CCCN1c1ncnc(N)c1C#N (stereo not drawn) [Compound 3, 4-amino-6-(2-(2-(3,5-dimethylisoxazol-4-yl)-8-methylquinolin-3-yl)pyrrolidin-1-yl)pyrimidine-5-carbonitrile]	9.28	–	–	–	–	–	–	–
Cc1nnc2ccc(N3CCN(c4nc5cc(F)ccc5cc4C4CCCN4c4ncnc(N)c4C#N)CC3)nn12 (stereo not drawn) [Compound 4, 4-amino-6-(2-(7-fluoro-2-(4-(3-methyl-[1,2,4]triazolo[4,3-b]pyridazin-6-yl)piperazin-1-yl)quinolin-3-yl)pyrrolidin-1-yl)pyrimidine-5-carbonitrile]	9.18	5.10	–	–	–	–	–	–
Cn1cc(-c2ccc3cc(C4CCCN4c4ncnc(N)c4C#N)c(N4CCOCC4)nc3c2)c2cc[nH]c2c1=O (stereo not drawn) [Compound 6]	–	8.46	PI3K-inactive	–	–	–	–	–
Cc1nnc2ccc(-c3ccc4cc(C5CCCN5c5ncnc(N)c5C#N)c(N5CCOCC5)nc4c3)nn12 (stereo not drawn) [Compound 7]	–	6.16	–	–	–	–	–	–
Cc1cc(-c2ccc3cc(C4CCCN4c4ncnc(N)c4C#N)c(N4CCOCC4)nc3c2)cn(C)c1=O (stereo not drawn) [Compound 8]	–	7.55	PI3K-inactive	8.11	–	–	–	–
Cc1noc(C)c1-c1cccc2cc(C3CCCN3c3ncnc(N)c3C#N)c(N3CCOCC3)nc12 (stereo not drawn) [Compound 9]	8.49	5.02	–	–	–	–	–	–
Cc1nnc2ccc(-c3cccc4cc(C5CCCN5c5ncnc(N)c5C#N)c(N5CCOCC5)nc34)nn12 (stereo not drawn) [Compound 10]	7.52	5.40	–	–	–	–	–	–
Cc1cc(-c2cccc3cc(C4CCCN4c4ncnc(N)c4C#N)c(N4CCOCC4)nc23)cn(C)c1=O (stereo not drawn) [Compound 11]	8.27	7.62	–	7.07	6.61	6.25	7.25	–
Cn1cc(-c2cccc3cc(C4CCCN4c4ncnc(N)c4C#N)c(N4CCOCC4)nc23)c2cc[nH]c2c1=O (stereo not drawn) [Compound 12]	8.30	7.46	–	–	–	–	–	–
Cc1cc(-c2c(F)ccc3cc(C4CCCN4c4nc(N)nc(N)c4C#N)c(N4CCOCC4)nc23)cn(C)c1=O (stereo not drawn) [Compound 13]	–	6.10	–	7.91	–	–	< 5.00	inactive
Cc1cc(-c2c(F)ccc3cc(C4CCCN4c4nc(N)nc5[nH]cnc45)c(N4CCOCC4)nc23)cn(C)c1=O (stereo not drawn) [Compound 14]	–	< 5.00	–	5.38	–	–	–	–
Cc1cc(-c2c(F)ccc3cc(C4CCCN4c4ncnc(N)c4C#N)c(N4CCOCC4)nc23)cn(C)c1=O (stereo not drawn) [Compound 15]	–	5.90	–	6.17	–	–	–	–
Cc1cc(-c2ccc(F)c3cc(C4CCCN4c4ncnc(N)c4C#N)c(N4CCOCC4)nc23)cn(C)c1=O (stereo not drawn) [Compound 16]	–	–	–	5.30	–	–	–	inactive
Cc1cc(-c2ccc(F)c3cc(C4CCCN4c4nc(N)nc(N)c4C#N)c(N4CCOCC4)nc23)cn(C)c1=O (stereo not drawn) [Compound 17]	–	–	–	6.13	–	–	< 5.00	–
Cc1cc(-c2cccc3cc(C4CCCN4c4ncnc(N)c4C#N)c(N4CCCCC4)nc23)cn(C)c1=O (stereo not drawn) [Compound 18]	8.72	7.07	–	7.07	5.37	6.06	7.41	–
Cc1cc(-c2cccc3cc(C4CCCN4c4ncnc(N)c4C#N)c(N(C)C)nc23)cn(C)c1=O (stereo not drawn) [Compound 19]	8.52	7.62	–	7.71	6.27	6.22	7.10	–
Cn1cc(-c2cccc3cc(C4CCCN4c4nc(N)nc(N)c4C#N)c(N4CCOCC4)nc23)c2cc[nH]c2c1=O (stereo not drawn) [Compound 21]	8.43	7.61	–	7.74	7.27	6.93	8.70	–
CC(C)Nc1nc2c(-c3cn(C)c(=O)c4[nH]ccc34)cccc2cc1C1CCCN1c1ncnc(N)c1C#N (stereo not drawn) [Compound 22]	7.71	6.20	–	7.13	6.26	5.45	6.77	–
Cc1cc(-c2cccc3cc([C@@H]4CCCN4c4ncnc(N)c4C#N)c(N4CCOCC4)nc23)cn(C)c1=O [Compound 23]	9.14	7.57	–	7.89	6.82	6.72	7.89	–
Cn1cc(-c2cccc3cc([C@@H]4CCCN4c4nc(N)nc(N)c4C#N)c(N4CCOCC4)nc23)c2cc[nH]c2c1=O [Compound 24]	9.03	7.90	–	8.04	7.74	7.27	8.84	–
Cn1cc(-c2cccc3cc(CNc4nc(N)nc(N)c4C#N)c(N4CCOCC4)nc23)c2cc[nH]c2c1=O [Compound 25]	8.70	7.26	–	7.68	7.69	7.36	7.78	–
Cc1cc(-c2cccc3cc(C4CCCN4c4ncnc(N)c4C#N)c(-c4ccccc4)nc23)cn(C)c1=O (stereo not drawn) [Compound 28]	8.81	6.35	–	6.83	5.99	6.45	7.93	–
Cc1cc(-c2cccc3cc(C4CCCN4c4ncnc(N)c4C#N)c(-c4cccnc4)nc23)cn(C)c1=O (stereo not drawn) [Compound 29]	8.91	7.42	–	7.33	6.06	6.58	7.72	–
